Test results: US6586435B2, “Benzimidazolone derivatives displaying affinity at the serotonin and dopamine receptors” (Boehringer Ingelheim Pharma KG, priority 2000, dated 2003)
Like-named read-outs stand apart in the source and are kept apart here.

Assays:
D4 human receptors = target: T1, D4 human receptors (Homo sapiens, UniProt P21917); assay: D4 radioligand receptor binding assay ([3H] YM-09151-2); details: compound 10^−7 M, singlicate; membranes from CHO cells; [3H] YM-09151-2 0.15-0.25 nM
T1 construct: expressed in transfected cells; host or cells: CHO cells
T1 sequence (P21917 1-419): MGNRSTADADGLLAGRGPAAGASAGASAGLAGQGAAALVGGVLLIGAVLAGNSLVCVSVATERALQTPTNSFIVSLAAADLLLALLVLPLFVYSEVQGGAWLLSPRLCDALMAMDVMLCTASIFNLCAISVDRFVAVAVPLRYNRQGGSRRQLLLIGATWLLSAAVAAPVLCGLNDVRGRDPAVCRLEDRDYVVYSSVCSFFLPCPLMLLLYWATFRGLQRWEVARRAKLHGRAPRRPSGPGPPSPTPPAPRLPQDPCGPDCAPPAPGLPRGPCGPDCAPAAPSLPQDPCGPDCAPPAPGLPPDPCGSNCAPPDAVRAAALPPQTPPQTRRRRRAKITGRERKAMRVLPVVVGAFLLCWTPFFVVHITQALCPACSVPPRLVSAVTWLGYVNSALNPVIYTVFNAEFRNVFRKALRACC
Protocol: D4 Radioligand Receptor Binding Assay
Membranes from CHO cells, expressing D4 human receptors were suspended in incubation buffer.
Binding assays were performed in MultiProbe 204 pipetting system (Packard), according to a predetermined mapping, consistent with the software Screen. The compounds were tested in singlicate at one concentration (10^−7 M) in a total volume of 1000 μl (980 μl of diluted membranes, 10 μl DMSO or unlabelled ligand, and 10 μl of [^3H] YM-09151-2 (0.15-0.25 nM). After incubation for 120 minutes at 27° C., the reaction was stopped by rapid filtration through Tomtec Cell Harvester (48 wells) using Filtermat B (presoaked in 0.1% PEI) filters. Filters were washed with ice-cold 50 mM Tris-HCl (pH 7.4) buffer (9×700 μl), dried, covered with MeltiLex B/HS (Wallac) scintillator sheets and heated in oven at 80° C.-90° C. for about 10 minutes, transferred into plastic sample bags (Wallac), sealed and put into 1024 Beta Plate scintillation counter (Wallac). Non-specific binding was determined in the presence of clozapine dissolved in DMSO to a final concentration of 10^−5 M.
(§1) The specific radioligand binding to the receptor was defined by the difference between total binding and non-specific binding, determined in the presence of an excess of unlabelled ligand. Results were expressed as percentage of control specific binding obtained in the presence of the compounds.

[1] = target: T2, 5-HT1A receptor (CHO/5-HT1A cells) (Homo sapiens, UniProt P08908); assay: 5-HT1A functional assay (cAMP); type: cell-based; details: 10 μM compound, % inhibition of the cAMP accumulation induced by 10 μM FSK, read-out: 5-HT1A cAMP % Inhibition (agonist activity)
T2 construct: expressed in transfected cells; host or cells: CHO/5-HT1A cells
T2 sequence (P08908 1-422): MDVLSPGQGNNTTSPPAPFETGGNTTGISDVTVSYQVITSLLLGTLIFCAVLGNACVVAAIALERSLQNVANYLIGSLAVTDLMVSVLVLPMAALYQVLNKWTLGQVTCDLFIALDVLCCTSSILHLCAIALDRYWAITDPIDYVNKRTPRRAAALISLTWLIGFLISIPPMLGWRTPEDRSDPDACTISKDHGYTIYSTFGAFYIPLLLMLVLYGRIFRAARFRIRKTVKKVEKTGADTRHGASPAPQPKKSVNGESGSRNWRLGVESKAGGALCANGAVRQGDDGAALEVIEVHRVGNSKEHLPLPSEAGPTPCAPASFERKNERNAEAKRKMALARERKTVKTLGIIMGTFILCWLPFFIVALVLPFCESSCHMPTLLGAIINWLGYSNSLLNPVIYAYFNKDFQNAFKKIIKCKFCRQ
Protocol: 5-HT1A Functional Assay (cAMP)
CHO/5-HT1A cells were random seeded at a density of about 200,000/well in 24 well plates the day prior to the experiment. On the day of the experiment, cells were pretreated for 15 minutes at 37° C. with 500 μM isobutylmethylxantine (IBMX) dissolved in culture medium without serum. Wells were then divided in different groups in duplicate as follows: control, 10 μM FSK, 10 μM FSK+1 μM 5-HT as positive standard and 10 μM FSK+10 μM of the different compound under evaluation. Sample solutions were added and incubated for additional 15 minutes at 37° C. After incubation, medium was aspirated and the reaction stopped by adding 200 μl of lysis buffer. Plates were shaken for 5 minutes, then the lysate was removed and samples were stored at 4° C. until the day of the assay. For the cAMP evaluation, samples were properly diluted and the cAMP content was measured by an enzyme immunoassay system.
Results are expressed as % inhibition of the cAMP accumulation induced by 10 μM FSK.

5-HT1A human receptors = target: T3, 5-HT1A human receptors (Homo sapiens, UniProt P08908); assay: 5-HT1A radioligand receptor binding assay ([3H]-8-OH-DPAT); details: for inhibition at 0.1 µM: compound 10^−7 M, singlicate, [3H]-8-OH-DPAT 0.6-0.7 nM
T3 construct: expressed in transfected cells; host or cells: CHO cells
T3 sequence (P08908 1-422): T2 sequence (P08908 1-422)
Protocol: 5-HT1A, Radioligand Receptor Binding Assay
Membranes from CHO cells, expressing 5-HT1A human receptors were suspended in incubation buffer.
Binding assays were performed in MultiProbe 204 pipetting system (Packard), according to a predetermined mapping, consistent with the software Screen. The compounds were tested in singlicate at one concentration (10^−7 M) in a total volume of 1000 μl. 980 μl of diluted membranes, 10 μl DMSO or unlabelled ligand, and 10 μl of [^3H]-8-OH-DPAT (0.6-0.7 nM) were incubated for 60 minutes at 27° C. The reaction was stopped by rapid filtration through Tomtec Cell Harvester (48 wells) using Filtermat B (presoaked in 0.1% PEI) filters. Filters were washed with ice-cold 50 mM Tris-HCl (pH 7.4) buffer (9×700 μl), dried, covered with MeltiLex B/HS scintillator sheets (Wallac) and heated at 80° C. to 90° C. for about 10 minutes, transferred into plastic sample bags (Wallac), sealed and put into 1024 Beta Plate scintillation counter (Wallac). Non-specific binding was determined in the presence of 5-HT (10^−5 M).
as §1, with “compounds. The affinity values (IC50) for the compounds were obtained by a nonlinear least squares regression analysis on the basis of a one binding site model.” for “compounds.”

[2] = membranes from CHO cells, [3H]-8-OH-DPAT, one binding site model, read-out: 5-HT1A Receptor Binding IC50

| SMILES | inhibition at 0.1 µM (D4 human receptors) | inhibition at 10 µM [1] | inhibition at 0.1 µM (5-HT1A human receptors; membranes from CHO cells) | IC50 (5-HT1A human receptors; [2]) | IC50 (5-HT1A human receptors) |
| --- | --- | --- | --- | --- | --- |
| O=c1[nH]c2ccccc2n1C/C=C/CN1CCN(c2cccc(C(F)(F)F)c2)CC1 [Compound 9] | 54% | 80% | 96% | – | 4.8 nM |
| O=c1[nH]c2ccccc2n1C/C=C\CN1CCN(c2cccc(C(F)(F)F)c2)CC1 [Compound 26] | 49% | 68% | 94% | – | 6.6 nM |
| O=c1[nH]c2ccccc2n1C/C=C\CN1CC=C(c2ccccc2)CC1 [Compound 27] | 70% | 44% | 87% | – | 6.4 nM |
| Cn1c(=O)n(C/C=C\CN2CCN(c3cccc(C(F)(F)F)c3)CC2)c2ccccc21 [Compound 43] | 54% | 73% | 94% | 1.2 nM | – |
| Cn1c(=O)n(C/C=C\CN2CC=C(c3ccccc3)CC2)c2ccccc21 [Compound 44] | 69% | 47% | 94% | – | 2.5 nM |
| CCCn1c(=O)n(C/C=C\CN2CCN(c3cccc(C(F)(F)F)c3)CC2)c2ccccc21 [Compound 60] | 30% | 71% | 88% | 1.8 nM | – |
| CCCn1c(=O)n(C/C=C\CN2CC=C(c3ccccc3)CC2)c2ccccc21 [Compound 61] | 44% | 26% | 90% | – | 5.2 nM |
| O=c1n(C/C=C\CN2CC=C(c3ccccc3)CC2)c2ccccc2n1CC1CCCCC1 [Compound 78] | 40% | 27% | 86% | – | 18 nM |
| Cn1c(=O)n(C/C=C/CN2CCN(c3cccc(C(F)(F)F)c3)CC2)c2ccccc21 [Compound 94] | – | 75% | – | 0.96 nM | – |
| Cn1c(=O)n(C/C=C/CN2CC=C(c3ccccc3)CC2)c2ccccc21 [Compound 95] | 46% | 22% | 92% | – | 7.3 nM |
| CCCn1c(=O)n(C/C=C/CN2CCN(c3cccc(C(F)(F)F)c3)CC2)c2ccccc21 [Compound 111] | 32% | 68% | 94% | 4.4 nM | – |
| CCCn1c(=O)n(C/C=C/CN2CC=C(c3ccccc3)CC2)c2ccccc21 [Compound 112] | 43% | 9% | 87% | – | 13 nM |
| O=c1n(C/C=C/CN2CC=C(c3ccccc3)CC2)c2ccccc2n1CC1CCCCC1 [Compound 129] | – | 13% | – | – | 5.5 nM |

Further lines, with some results ahead:

| inhibition at 0.1 µM (D4 human receptors) | inhibition at 10 µM [1] | inhibition at 0.1 µM (5-HT1A human receptors; membranes from CHO cells) | IC50 (5-HT1A human receptors; [2]) | SMILES | IC50 (5-HT1A human receptors) |
| --- | --- | --- | --- | --- | --- |
| 59% | 66% | 88% | 15 nM | Cn1c(=O)n(C/C=C\CN2CCN(c3ccccc3)CC2)c2ccccc21 [Compound 35] | – |
| 72% | 63% | 91% | 9.8 nM | Cn1c(=O)n(C/C=C\CN2CCN(c3cccc(Cl)c3)CC2)c2ccccc21 [Compound 39] | – |
| 47% | 54% | 90% | 16 nM | CCCn1c(=O)n(C/C=C\CN2CCN(c3ccccc3)CC2)c2ccccc21 [Compound 52] | – |
| 65% | 65% | 92% | 11 nM | CCCn1c(=O)n(C/C=C\CN2CCN(c3cccc(Cl)c3)CC2)c2ccccc21 [Compound 56] | – |
| 41% | 52% | 90% | 13 nM | O=c1n(C/C=C\CN2CCN(c3ccccc3)CC2)c2ccccc2n1CC1CCCCC1 [Compound 69] | – |
| 34% | 66% | 92% | 10 nM | Cn1c(=O)n(C/C=C/CN2CCN(c3ccccn3)CC2)c2ccccc21 [Compound 89] | – |
| 79% | 62% | 98% | 4.6 nM | Cn1c(=O)n(C/C=C/CN2CCN(c3cccc(Cl)c3)CC2)c2ccccc21 [Compound 90] | – |
| 54% | 46% | 88% | 15 nM | Cn1c(=O)n(C/C=C/CN2CCc3c([nH]c4ccccc34)C2)c2ccccc21 [Compound 92] | – |
| 37% | 68% | 92% | 7.4 nM | CCCn1c(=O)n(C/C=C/CN2CCN(c3ccccn3)CC2)c2ccccc21 [Compound 106] | – |
| 69% | 54% | 96% | 5.3 nM | CCCn1c(=O)n(C/C=C/CN2CCN(c3cccc(Cl)c3)CC2)c2ccccc21 [Compound 107] | – |
| 49% | 17% | 98% | 6 nM | O=c1n(C/C=C/CN2CCN(c3ccccc3)CC2)c2ccccc2n1CC1CCCCC1 [Compound 120] | – |
| 57% | 63% | 98% | 1.2 nM | O=c1n(C/C=C/CN2CCN(c3ccccn3)CC2)c2ccccc2n1CC1CCCCC1 [Compound 123] | – |
| 49% | 47% | 99% | 11 nM | O=c1n(C/C=C/CN2CCN(c3cccc(Cl)c3)CC2)c2ccccc2n1CC1CCCCC1 [Compound 124] | – |
| – | 44% | – | 15 nM | O=c1n(C/C=C/CN2CCc3c([nH]c4ccccc34)C2)c2ccccc2n1CC1CCCCC1 [Compound 126] | – |
| – | 61% | – | 8.4 nM | O=c1n(C/C=C/CN2CCN(c3cccc(C(F)(F)F)c3)CC2)c2ccccc2n1CC1CCCCC1 [Compound 128] | – |
